Assay results reported in patent US20220106564A1, “COMPOSITION AND KIT FOR DIFFERENTIATION OF STEM CELLS INTO NEURAL CREST STEM CELLS, INCLUDING INHIBITOR OF TGF-BETA I RECEPTOR AND BMP INHIBITOR, AND METHOD USING SAME” (CHA UNIVERSITY INDUSTRY-ACADEMIC COOPERATION FOUNDATION, priority 2019, published 2022).

What was measured:
[1] = tested on: H9 human embryonic stem cells (hESCs); experiment: Embryoid body count after suspension culture of H9 hESCs; assay type: cell-based; conditions: increasing concentrations of DMH1 in EB medium with 10 μM SB431542; suspension culture about 4 days; p<0.001
Experimental: Colonies obtained by culturing H9 human embryonic stem cells (hESCs) (WiCell Research Institute, Inc. Madison, Wis., U.S.A.) in a culture medium were dissociated into single cells using accutase (Life Technologies). The cells dissociated into single cells were seeded in a culture plate coated with a protein such as vitronectin (VTN) (vitronectin XF, STEMCELL Technologies), […]-521, Thermo Fisher Scientific Inc., Waltham, Mass., USA), fibronectin (Thermo Fisher Scientific Inc.), or MatrigelTM (StemCell Technologies, Inc.). An embryonic stem cell (ESC) culture medium was added to the seeded cells to perform undifferentiation culture. As the ESC culture medium, Essential 8 (E8) medium (StemCell Technologies Inc.), TeSR2 medium (StemCell Technologies Inc), StemMACS (Miltenyi Biotec, Bergisch Gladbach, Germany), etc. was used. […] The number of round-shaped embryoid bodies were counted, and the number of embryoid bodies per unit area (embryoid body/cm^2) according to DMH1 concentrations is shown in FIG. 1D (***: p<0.001).

[2] = tested on: H9 human embryonic stem cells (hESCs); experiment: Flow cytometry for P75 (neural crest stem cell marker) in cultured cells; assay type: cell-based; conditions: suspension about 3 days + adherent about 4 days (FIG. 3E)
Experimental: The obtained colonies were finely chopped and suspension-cultured under conditions of 37° C. and 5% CO2 in an EB medium containing 10 μM of SB431542 (GlaxoSmithKline: GSK) as a TGF-β I receptor inhibitor and 0.5 μM to 1 μM of dorsomorphin homolog 1 (DMH1) (Tocris Bioscience, USA) or dorsomorphin (Tocris Bioscience, […]). EB medium contained DMEM/F12 (Life Technologies), 20%(v/v) Knockout serum replacement (KSR, Invitrogen), lx non-essential amino acids (Invitrogen), 0.1 mM 13-mercaptoethanol (Invitrogen), and lx penicillin/streptomycin (Invitrogen). As a negative control, dimethyl sulfoxide (DMSO) (Sigma-Aldrich) was used instead of the drug. […] To analyze a proportion of cells expressing P75 protein which is a neural crest stem cell (NCSC) marker, or SOX1 which is a neural progenitor cell (NPC) marker, immunostaining was performed using phycoerythrin (PE)-labeled anti-P75 monoclonal antibody (1:50 dilution) (Miltenyi Biotec), and phycoerythrin (PE)-labeled anti-Sox1 monoclonal antibody (1:100 dilution) (BD Biosciences). The immunostained cells were subjected to flow cytometry using a BD FACSCalibur flow cytometer (BD Biosciences, Sparks, Md., USA). The results of flow cytometry are shown in FIGS. 2A and 2B (FIG. 2A: a graph of P75 flow cytometry, FIG. 2B: a graph of SOX1 flow cytometry). Cells suspension-cultured for about 3 days and adherent-cultured for about 4 days were subjected to P75 flow cytometry, as described in Example 1.2, and the results of flow cytometry are shown in FIG. 3E (upper: SB431542 and DMH1, lower: SB431542 and dorsomorphin).

Q: With `CC(C)Oc1ccc(-c2cnc3c(-c4ccnc5ccccc45)cnn3c2)cc1` [DMH1, 4-[6-[4-(1-Methylethoxy)phenyl]pyrazolo[1,5-a]pyrimidin-3-yl]-quinoline] as the compound, how does the “number of embryoid bodies per unit area” value [1] read?
A: significantly decreased

Q: And the “proportion of P75-expressing cells” value ([2]; 0.5 μM to 1 μM DMH1 + 10 μM SB431542)?
A: ≥ 69.8%

Q: And the “proportion of P75-expressing cells” value ([2]; 2.5 μM DMH1 + 10 μM SB431542)?
A: about 28.9%

Q: With `c1cc(-c2cnn3cc(-c4ccc(OCCN5CCCCC5)cc4)cnc23)ccn1` [dorsomorphin, 6-[4-[2-(1-Piperidinyl)pethoxy]phenyl]-3-(4-pyridinyl)-pyrazolo[1,5-a]pyrimidine] as the compound, how does the “proportion of P75-expressing cells” value ([2]; 0.5 μM BMP inhibitor in EB medium containing 10 μM SB431542 and dorsomorphin) read?
A: ≥ 83.2%
